For data set [1] the following is noted: cited from earlier work; for Monera et al. Hydrophobicity at pH 7: normalized, phenylalanine 100, glycine 0.
The conditions of data set [2]: cited from earlier work.
Data set [3] concerns the target T1, MAP kinase1/Erk1 (Homo sapiens, UniProt P27361).
T1 construct: purchased Upstate USA, Inc
In words: Real-time kinase assay with hydrophobic molecule and myelin basic protein micelle. The following applies: FIG. 3B. The format is biochemical. As to the method: (§1) The compositions described herein are useful in the detection of enzymes. Real-time kinase assays for PKCβII, MAP kinase1/Erk1, and MAP kinase2/Erk2 using the hydrophobic molecule, C16OOOK(Dye 2)EEIYGEF-amide and charge-balance molecule, myelin basic protein with 0 or 100 μM ATP, are shown in FIGS. 3A-C.
(§2) A reaction solution (10 μl) was prepared containing the hydrophobic molecule C16OOOK(Dye2)EEIYGEF-amide (10 μM), and 10 μM charge-balance molecule Myelin Basic Protein (Upstate cat. no: 13-104), in 20 mM Tris buffer, pH 7.6, MgCl2 (5 mM), DTT (5 mM) and either PKCβII (0.15 ng/μl, Upstate USA, Inc.), MAP kinase1/Erk1 (1.5 ng/μl, Upstate USA, Inc.), or MAP kinase2/Erk2 (1.5 ng/μl, Upstate USA, Inc.). The solution was pipetted into wells of a 384-well plate (10 μL per well), Corning 384-well, black, non-binding surface (NBS), microwell plates. ATP (0 or 500 μM) was added to initiate the kinase reaction. Fluorescence was read in real-time every 2 minutes for 2 hours, at ambient temperature, using, Molecular Devices (Sunnyvale, Calif.) Analyst GT, with excitation and emission set at 485 and 535 nm respectively.

In data set [4] the target is T2, MAP kinase2/Erk2 (Homo sapiens, UniProt P28482).
T2 construct: purchased Upstate USA, Inc
T2 sequence (P28482 whole entry): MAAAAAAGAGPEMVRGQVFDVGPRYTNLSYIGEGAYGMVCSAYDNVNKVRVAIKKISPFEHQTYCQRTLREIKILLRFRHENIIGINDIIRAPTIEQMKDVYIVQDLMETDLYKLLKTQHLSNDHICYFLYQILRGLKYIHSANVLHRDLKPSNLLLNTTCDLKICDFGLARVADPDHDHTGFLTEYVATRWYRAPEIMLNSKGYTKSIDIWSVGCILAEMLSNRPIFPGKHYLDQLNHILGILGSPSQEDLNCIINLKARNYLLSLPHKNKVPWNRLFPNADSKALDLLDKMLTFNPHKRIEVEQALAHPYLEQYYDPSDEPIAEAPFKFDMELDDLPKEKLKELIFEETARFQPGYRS
Described as above. Type of data set: biochemical. As to conditions: FIG. 3C. As to the method: as §1, §2

The target of data set [5] is T3, PKCβII (Homo sapiens, UniProt P05771).
T3 construct: purchased Upstate USA, Inc
T3 sequence (P05771 1-673 isoform P05771-2): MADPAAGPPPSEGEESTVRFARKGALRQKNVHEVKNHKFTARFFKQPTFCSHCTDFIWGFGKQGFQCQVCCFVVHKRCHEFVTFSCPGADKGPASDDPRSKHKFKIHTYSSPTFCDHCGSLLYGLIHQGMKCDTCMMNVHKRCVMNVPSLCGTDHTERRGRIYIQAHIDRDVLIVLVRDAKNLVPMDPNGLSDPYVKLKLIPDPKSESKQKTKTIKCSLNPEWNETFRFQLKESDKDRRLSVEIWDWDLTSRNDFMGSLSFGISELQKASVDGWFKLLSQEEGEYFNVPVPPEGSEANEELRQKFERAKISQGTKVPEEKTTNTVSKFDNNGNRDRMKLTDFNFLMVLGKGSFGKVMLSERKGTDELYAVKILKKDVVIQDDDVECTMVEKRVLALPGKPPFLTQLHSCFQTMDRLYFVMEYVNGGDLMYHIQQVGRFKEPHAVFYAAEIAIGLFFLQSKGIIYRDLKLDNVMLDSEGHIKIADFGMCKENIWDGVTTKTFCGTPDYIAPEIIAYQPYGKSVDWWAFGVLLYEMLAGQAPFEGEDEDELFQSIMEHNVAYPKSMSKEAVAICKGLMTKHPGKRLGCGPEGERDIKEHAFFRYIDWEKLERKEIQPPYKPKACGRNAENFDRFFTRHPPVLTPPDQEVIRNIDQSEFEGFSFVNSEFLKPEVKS
The data set is described as above. Type of data set: biochemical. As to conditions: FIG. 3A. How it is done: as §1, §2

Data set [6] addresses T3, PKCβII. Kind of data set: Inhibition of PKCβII in real-time micelle kinase assay. The format is biochemical. The following applies: FIGS. 5A-B, IC50 only in figures.
Method: A reaction solution (10 μl) was prepared containing the hydrophobic molecule C16OOOK(Dye2)EEIYGEF-amide (10 μM), and 10 μM charge-balance molecule Myelin Basic Protein (Upstate USA, Inc. cat. no: 13-104), in 20 mM Tris buffer, pH 7.6, MgCl2 (5 mM), DTT (5 mM), 10% Lipid Activator (Upstate USA, Inc), and PKCβII (0.15 ng/μl, Upstate USA, Inc.). The solution was pipetted into wells of a 384-well plate (10 μL per well), Corning 384-well, black, non-binding surface (NBS), microwell plates. […] ATP (10 μM) was added to initiate the kinase reaction. Fluorescence was read in real-time every 2 minutes for 2 hours, at ambient temperature, using, Molecular Devices (Sunnyvale, Calif.) Analyst GT, with excitation and emission set at 485 and 535 nm respectively.
A short description of data set [7]: Freeze fracture electron microscopy of micelles. The format is physicochemical. As to conditions: 25 mM Tris pH 7.6; for micelle form seen in electron micrograph: FIGS. 1A-B. The text has this: Micelle formation can be detected in a variety of ways, including fluorescence titration of the molecules in detergent, and dynamic laser light scattering. Additionally, direct visual evidence of micelle formation, and micelle disruption by adding a charged group, can be obtained by freeze fracturing electron microscopy. For example, FIG. 1A is an electron micrograph of micelles comprising the hydrophobic molecule, C17OOOK(tet)RQGSFRA-amide. […] “Tet” is a fluorescent moiety provided by 2′,7′,4,7-tetachloro-5-carboxy fluorescein (2′,7-dichloro-5-carboxy-4,7-dichlorofluorescein). OOO represents optional O-spacers comprising (bis)ethylene glycol group(s). […] FIG. 1B is an electron micrograph of micelles comprising a phosphorylated hydrophobic molecule, C17OOOK(tet)RQGS(p)FRA-amide. […] Thus, the addition of two negative charges to the hydrophobic molecule, results in micelle disruption and deaggregation.
For freeze fracture electron microscopy, the hydrophobic molecule, C17OOO K(tet)RQGSFRA-amide phosphorylated hydrophobic molecule C17OOOK (tet)RQGS(p)FRA-amide were each dissolved in 25 mM Tris (pH 7.6), 5 mM MgCl and 5 mM DTT. The samples were frozen in liquid nitrogen-cooled propane. […] The fracturing process was carried out in a JEOL JED-9000 freeze-etching machine and the exposed fractured planes were shadowed with Pt for thirty seconds at an angle of 25-35 C and with carbon for 35 seconds (2 kV/60-70 mA, 1×10^−5 Torr). The replicas produced were cleaned with concentrated chloroform/methanol (1:1 by volume) at least five times. The cleaned replicas were examined with a JEOL 1000CX or Philips CM 10 electron microscope.

K(Dye2) = not defined here; K(tet) = not defined here; code O = not defined here; C17 = C17 chain

T1 sequence (P27361 whole entry): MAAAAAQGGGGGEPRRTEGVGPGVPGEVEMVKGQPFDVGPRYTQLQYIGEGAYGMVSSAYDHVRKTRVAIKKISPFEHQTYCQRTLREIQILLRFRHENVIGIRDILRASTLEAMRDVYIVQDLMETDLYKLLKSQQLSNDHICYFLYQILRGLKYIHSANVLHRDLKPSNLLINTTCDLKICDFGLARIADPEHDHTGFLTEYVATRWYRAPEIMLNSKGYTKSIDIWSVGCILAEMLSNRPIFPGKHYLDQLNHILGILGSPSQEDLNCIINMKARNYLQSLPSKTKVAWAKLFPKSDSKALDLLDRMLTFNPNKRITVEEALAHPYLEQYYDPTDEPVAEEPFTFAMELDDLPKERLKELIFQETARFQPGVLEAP

On to `O=C(O)[C@@H]1CCCN1` [Proline (P), Proline], for which the “Monera et al. Hydrophobicity” value in data set [1] (pH 2) is −46 (pH 2). Further, in data set [2], the “α-COOH pKa” value was 2.1.
With “C16OOOK(Dye2)EEIYGEF-amide ({C16-code O-code O-code O-K(Dye2)}-EEIYGEF-NH2; reading uncertain; also: printed as C16OOOK(Dye2)EEIYGEF-amide) [C16OOOK(Dye 2)EEIYGEF-amide, hydrophobic molecule: C16 carbon chain, O-spacers, lysine-linked 5-carboxy-2′,7′-dipyridyl-sulfonefluorescein, peptide EEIYGEF-amide]”, the “increase in fluorescence over time on addition of enzyme” value in data set [3], in data set [4] and in data set [5] was “greater than 4 fold” each time.
Take `O=S(=O)(NCCNC/C=C/c1ccc(Br)cc1)c1cccc2cnccc12` [H98, H89]: in data set [6], the “effect of increasing concentrations of enzyme inhibitor on fluorescence” value is reported as “decrease in fluorescence”.
For the molecule `N[C@@H](CS)C(=O)O` [Cysteine (C), Cysteine], in data set [1], the “Monera et al. Hydrophobicity at pH 7” value is listed as 49. In data set [2], the “Side chain pKa” value was “about 8”.
Regarding `CSCC[C@H](N)C(=O)O` [Methionine (M), Methionine], in data set [1], the “Monera et al. Hydrophobicity at pH 7” value was 74. Also, in data set [2], the “α-COOH pKa” value is 2.3 and the “α-NH3+ pKa” value is 9.2.
In the case of `N=C(N)NCCC[C@H](N)C(=O)O` [Arginine (R), Arginine], in data set [2], the “α-COOH pKa” value was 2.2.
As to `N[C@@H](Cc1ccc(O)cc1)C(=O)O` [Tyrosine (Y), Tyrosine], the “Monera et al. Hydrophobicity at pH 7” value in data set [1] is on record as 63.
In the case of “C17OOOK(tet)RQGSFRA-amide ({C17-code O-code O-code O-K(tet)}-RQGSFRA-NH2; reading uncertain; also: printed as C17OOOK(tet)RQGSFRA-amide) [hydrophobic molecule: C17 carbon chain, O-spacers, lysine-linked tet fluorescein dye, peptide RQGSFRA-amide]”, the “micelle form seen in electron micrograph” value in data set [7] was “cylindrical or tubular micelles”. In data set [7] (electron micrograph FIG. 1A), the “diameter of cylindrical or tubular micelles” value was 20-60 nm and the “length of cylindrical or tubular micelles” value is given as 200-1000 nm.
C17OOOK(tet)RQGS(p)FRA-amide: in data set [7], the “micelle form seen in electron micrograph” value is “only form small spheres and small clusters of spheres”.
Regarding `N[C@@H](Cc1ccccc1)C(=O)O` [Phenylalanine (F), Phenylalanine], the “Monera et al. Hydrophobicity at pH 7” value in data set [1] is 100.
For `CC[C@H](C)[C@H](N)C(=O)O` [Isoleucine (I), Isoleucine], in data set [1], the “Monera et al. Hydrophobicity at pH 7” value is reported as 99. In data set [2], the “α-COOH pKa” value is 2.4 and the “α-NH3+ pKa” value is 9.7.
In the case of `NCCCC[C@H](N)C(=O)O` [Lysine (K), Lysine], the “Monera et al. Hydrophobicity at pH 7” value in data set [1] was −23. Also, the “α-NH3+ pKa” value in data set [2] is reported as 9.0.
As to `NC(=O)C[C@H](N)C(=O)O` [Asparagine (N), Asparagine], the “Monera et al. Hydrophobicity at pH 7” value in data set [1] is given as −28. For the same molecule, in data set [2], the “α-COOH pKa” value is on record as 2.0 and the “α-NH3+ pKa” value was 8.8.
For `C[C@H](N)C(=O)O` [Alanine (A), Alanine], the “Monera et al. Hydrophobicity at pH 7” value in data set [1] is 41. In addition, in data set [2], the “α-COOH pKa” value is on record as 2.4.
Regarding `N[C@@H](Cc1c[nH]cn1)C(=O)O` [Histidine (H), Histidine], the “Monera et al. Hydrophobicity at pH 7” value in data set [1] is 8.
In the case of `N[C@@H](CO)C(=O)O` [Serine (S), Serine], the “Monera et al. Hydrophobicity at pH 7” value in data set [1] is −5. In data set [2], the “Side chain pKa” value is approximately 13 and the “α-NH3+ pKa” value is 9.2.
Regarding `N[C@@H](Cc1c[nH]c2ccccc12)C(=O)O` [Tryptophan (W), Tryptophan], in data set [1], the “Monera et al. Hydrophobicity at pH 7” value is reported as 97. Moreover, the “α-COOH pKa” value in data set [2] was 2.4.
As to `CC(C)[C@H](N)C(=O)O` [Valine (V), Valine], the “Monera et al. Hydrophobicity at pH 7” value in data set [1] is on record as 76.
Regarding `C[C@@H](O)[C@H](N)C(=O)O` [Threonine (T), Threonine], in data set [2], the “Side chain pKa” value is listed as approximately 13, the “α-COOH pKa” value is given as 2.6 and the “α-NH3+ pKa” value is given as 10.4.
